From US20260049101A1, “TOPICAL TREATMENT OF SKIN CANCER USING OLIGOPEPTIDES” (BACOBA AG, priority 2022, published 2026)
“Also recorded” adds a separate entry of the source. Read-outs that look alike come from different tables or passages of the source. Numbered stars: 1 amine (or outer) side, 2 acyl side, 3 side chain; on linkers, the order of the positions; unused ones are H or OH. Square brackets hold non-standard residues; d marks the D form. Peptide text beside a SMILES is read from it. * marks the point of attachment. X1 = CCC(=O)C[C@H](O)C[C@@H](C)C[C@H](N[*:1])C(=O)[*:2]; Hexenoyl(2E,4S-Me) = CC[C@H](C)/C=C/C(=O)*; Leu(3R-OH) = CC(C)[C@@H](O)[C@H](N)C(=O)O; NH((S)CH(Me)CH2NMe2) = C[C@@H](CN(C)C)N*; Pro(4S-Me) = C[C@@H]1CN[C@H](C(=O)O)C1; X4 = C[C@](N[*:1])(C(=O)[*:2])C(F)(F)F; NH(1-CH2NMe2-cBu) = CN(C)CC1(N*)CCC1; Oxazole4CO(2-Me) = Cc1nc(C(=O)*)co1; X8 = COc1ccc2cc(C(=O)*)c(=O)oc2c1; Benzoyl(4-F) = O=C(c1ccc(F)cc1)*; hCha = N[C@@H](CCC1CCCCC1)C(=O)O; Aib = CC(C)(N)C(=O)O; βAla = NCCC(=O)O

Tests used:
[1] = test system: patient derived Basal Cell Carcinoma (BCC); assay type: cell-based, human; conditions: 20 μM, 4 days, vs DMSO; p<0.002
From the text: Tumour material was harvested from an infiltrative basal cell carcinoma (BCC) from a patient's nose.

[2] = test system: patient derived Basal Cell Carcinoma (BCC); assay type: cell-based, human; conditions: 20 μM, 4 days, vs DMSO
[3] = Dermal tolerability in the in vivo efficacy test; set-up: species or system mouse
Procedure: (§1) In vivo efficacy test methodology. C57Bl/6 mice (Janvier Labs); females; 6-8 weeks old at beginning of the treatment. The tumour was induced through intradermal inoculation of 1×10^5 cells per mouse intradermally in the skin of the neck. A total of 24 mice were used (n=8 for vehicle, n=8 for 5% 6027, n=8 for leucinostatin A 0.2%). Test item was applied starting on day 1 after inoculation of the tumour cells. The test items of 20 μl of 5% 6027 and of 0.2% Leucinostatin A were applied dermally with a pipette once a day every day for up to 21 days to the intact skin area of about 1 cm^2 on the site were the B16-F10 cells had been injected. If ulceration occurred then the animal was removed from the test and sacrificed.

[4] = test system: B16F10 xenografts in C57BL/6 mice; test: In vivo efficacy test, dermal treatment of intradermal B16-F10 tumours (tumour volume); set-up: species or system mouse; conditions: 20 μl of 0.2% leucinostatin A dermally, treatment not continued longer than 7 days, observed to day 16
Procedure: as §1
The read out was tumour volume measured three times a week expressed as tumour volume (in cm^3). Additionally, tumour samples were taken for histological analysis (Tumour FFPE) (2 mice per group).

[5] = test system: cutaneous squamous cell carcinoma cell line SCC12; test: In vitro anti-proliferative assay (resazurin) in SCC12; assay type: cell-based; conditions: SCC12, 72 hours
From the text: Methodology. The cutaneous squamous cell carcinoma cell culture SCC12 was cultivated in keratinocyte-SFM media (KSFM, Cat #17005042, Gibco) supplemented with human recombinant epidermal growth factor 1-53 (EGF 1-53) and bovine pituitary extract (BFE).
Vehicle treated wells were set to 100% viability.

CS(=O)(=O)c1ccc(C(=O)Nc2ccc(Cl)c(-c3ccccn3)c2)c(Cl)c1 [Vismodegib, reference compound]
cell proliferation (Ki67) [1]: significantly reduced | apoptotic cells (TUNEL positive cells) [2]: Significant increase | cell proliferation (Ki67) [2]: significantly reduced

CCC(=O)C[C@H](O)C[C@@H](C)C[C@H](NC(=O)[C@@H]1C[C@H](C)CN1C(=O)/C=C/[C@@H](C)CC)C(=O)N[C@H](C(=O)NC(C)(C)C(=O)N[C@@H](CC(C)C)C(=O)N[C@@H](CC(C)C)C(=O)NC(C)(C)C(=O)NC(C)(C)C(=O)NCCC(=O)N[C@@H](C)CN(C)C)[C@H](O)C(C)C [leucinostatin A, reference compound] ({Hexenoyl(2E,4S-Me)}-[Pro(4S-Me)][X1][Leu(3R-OH)][Aib]LL[Aib][Aib][βAla]-{NH((S)CH(Me)CH2NMe2)}; N-terminus and C-terminus assumed)
skin irritation ([3]; 0.2% leucinostatin A (lowest test concentration)): strong skin irritation with destruction of the epidermis; also recorded: strong skin irritating effect | tolerability of dermal treatment ([3]; 0.2% leucinostatin A once a day): not tolerated | reduction of tumour volume [4]: no significant reduction of tumour volume

COc1ccc2cc(C(=O)N3CCC[C@H]3C(=O)N[C@@H](CCC3CCCCC3)C(=O)N[C@@H](CC(C)C)C(=O)NC(C)(C)C(=O)N[C@@H](CC(C)C)C(=O)N[C@@H](CC(C)C)C(=O)NC(C)(C)C(=O)NC(C)(C)C(=O)NCCC(=O)NC3(CN(C)C)CCC3)c(=O)oc2c1 [Compound 21287, (2S)-2-[(2S)-4-cyclohexyl-2-{[(2S)-1-(7-methoxy-2-oxo-2H-chromene-3-carbonyl)pyrrolidin-2-yl]formamido}butanamido]-N-(1-{[(1S)-1-{[(1S)-1-({1-[(1-{[2-({1-[(dimethylamino)methyl]cyclobutyl}carbamoyl)ethyl]carbamoyl}-1-methylethyl)carbamoyl]-1-methylethyl}carbamoyl)-3-methylbutyl]carbamoyl}-3-methylbutyl]carbamoyl}-1-methylethyl)-4-methylpentanamide] (X8-P[hCha]L[Aib]LL[Aib][Aib][βAla]-{NH(1-CH2NMe2-cBu)})
IC50 [5]: 0.595 µM

CC(C)C[C@H](NC(=O)[C@H](CC(C)C)NC(=O)[C@](C)(NC(=O)[C@H](CC(C)C)NC(=O)[C@H](CCC1CCCCC1)NC(=O)[C@@H]1CCCN1C(=O)c1ccc(F)cc1)C(F)(F)F)C(=O)NC(C)(C)C(=O)NC(C)(C)C(=O)NCCC(=O)NC1(CN(C)C)CCC1 [Compound 21362, (2S)-2-[(2S)-4-cyclohexyl-2-{[(2S)-1-(4-fluorobenzoyl)pyrrolidin-2-yl]formamido}butanamido]-N-[(1S)-1-{[(1S)-1-{[(1S)-1-({1-[(1-{[2-({1-[(dimethylamino)methyl]cyclobutyl}carbamoyl)ethyl]carbamoyl}-1-methylethyl)carbamoyl]-1-methylethyl}carbamoyl)-3-methylbutyl]carbamoyl}-3-methylbutyl]carbamoyl}-2,2,2-trifluoro-1-methylethyl]-4-methylpentanamide] ({Benzoyl(4-F)}-P[hCha]L[X4]LL[Aib][Aib][βAla]-{NH(1-CH2NMe2-cBu)})
IC50 [5]: 0.717 µM

Cc1nc(C(=O)N2CCC[C@H]2C(=O)N[C@@H](Cc2ccccc2)C(=O)N[C@@H](CC(C)C)C(=O)NC(C)(C)C(=O)N[C@@H](CC(C)C)C(=O)N[C@@H](CC(C)C)C(=O)NC(C)(C)C(=O)NC(C)(C)C(=O)NCCC(=O)NC2(CN(C)C)CCC2)co1 [Compound 6328, (2S)—N-(1-{[(1S)-1-{[(1S)-1-({1-[(1-{[2-({1-[(dimethylamino)methyl]cyclobutyl}carbamoyl)ethyl]carbamoyl}-1-methylethyl)carbamoyl]-1-methylethyl}carbamoyl)-3-methylbutyl]carbamoyl}-3-methylbutyl]carbamoyl}-1-methylethyl)-4-methyl-2-[(2S)-2-{[(2S)-1-(2-methyl-1,3-oxazole-4-carbonyl)pyrrolidin-2-yl]formamido}-3-phenylpropanamido]pentanamide] ({Oxazole4CO(2-Me)}-PFL[Aib]LL[Aib][Aib][βAla]-{NH(1-CH2NMe2-cBu)})
IC50 [5]: 1.66 µM
